Measurements as given in ChEMBL document CHEMBL5696442, “Discovery of type II inhibitors of TGFβ-activated kinase 1 (TAK1) and mitogen-activated protein kinase kinase kinase kinase 2 (MAP4K2)” (J Med Chem, 2015).

Tests used:
[1] = tested on: Tyrosine-protein kinase ABL1 (Homo sapiens), P00519 [H396P]; assay: Inhibition of ABL1 H396P mutant (unknown origin) at 10 uM by Ambit Kinomescan binding assay relative to control
[2] = target: Serine/threonine-protein kinase 10 (Homo sapiens) (UniProt O94804); assay: Inhibition of LOK K2 labeling site harbouring DLKAGNVLMTLEGDIR in human Huh-7 cells at 10 uM by KiNativ Profiling analysis relative to control; format: cell-based
Serine/threonine-protein kinase 10 (Homo sapiens), sequence (O94804 whole entry, looked up): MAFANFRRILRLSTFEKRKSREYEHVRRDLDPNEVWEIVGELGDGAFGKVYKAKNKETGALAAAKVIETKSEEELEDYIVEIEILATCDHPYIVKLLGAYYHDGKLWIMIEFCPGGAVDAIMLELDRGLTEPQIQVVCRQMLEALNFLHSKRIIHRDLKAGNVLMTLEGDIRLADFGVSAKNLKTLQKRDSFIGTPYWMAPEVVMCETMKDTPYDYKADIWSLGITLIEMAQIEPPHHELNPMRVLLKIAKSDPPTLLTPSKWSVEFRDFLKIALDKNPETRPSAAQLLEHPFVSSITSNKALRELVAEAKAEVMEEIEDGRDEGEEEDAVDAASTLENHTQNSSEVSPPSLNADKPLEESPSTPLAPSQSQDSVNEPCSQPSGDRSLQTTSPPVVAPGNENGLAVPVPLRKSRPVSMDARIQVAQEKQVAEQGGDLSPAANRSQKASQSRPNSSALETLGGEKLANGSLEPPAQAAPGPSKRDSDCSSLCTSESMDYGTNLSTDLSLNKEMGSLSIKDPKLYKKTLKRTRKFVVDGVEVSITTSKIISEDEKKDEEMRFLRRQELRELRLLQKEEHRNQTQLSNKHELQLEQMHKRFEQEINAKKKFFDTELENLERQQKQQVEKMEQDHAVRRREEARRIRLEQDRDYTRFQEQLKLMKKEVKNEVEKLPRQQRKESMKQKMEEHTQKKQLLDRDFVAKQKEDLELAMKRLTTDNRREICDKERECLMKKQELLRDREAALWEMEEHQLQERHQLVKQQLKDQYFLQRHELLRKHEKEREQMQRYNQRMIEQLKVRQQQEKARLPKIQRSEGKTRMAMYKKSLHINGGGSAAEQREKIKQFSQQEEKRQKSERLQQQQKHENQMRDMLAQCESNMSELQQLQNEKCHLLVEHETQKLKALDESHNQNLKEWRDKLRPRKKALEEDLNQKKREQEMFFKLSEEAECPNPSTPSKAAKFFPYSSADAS

[3] = target: T1, Serine/threonine-protein kinase greatwall (Homo sapiens) (UniProt Q96GX5); assay: Inhibition of MASTL K2 labeling site in human Huh-7 cells at 1 uM by KiNativ Profiling analysis relative to control; format: cell-based
T1 sequence (whole entry): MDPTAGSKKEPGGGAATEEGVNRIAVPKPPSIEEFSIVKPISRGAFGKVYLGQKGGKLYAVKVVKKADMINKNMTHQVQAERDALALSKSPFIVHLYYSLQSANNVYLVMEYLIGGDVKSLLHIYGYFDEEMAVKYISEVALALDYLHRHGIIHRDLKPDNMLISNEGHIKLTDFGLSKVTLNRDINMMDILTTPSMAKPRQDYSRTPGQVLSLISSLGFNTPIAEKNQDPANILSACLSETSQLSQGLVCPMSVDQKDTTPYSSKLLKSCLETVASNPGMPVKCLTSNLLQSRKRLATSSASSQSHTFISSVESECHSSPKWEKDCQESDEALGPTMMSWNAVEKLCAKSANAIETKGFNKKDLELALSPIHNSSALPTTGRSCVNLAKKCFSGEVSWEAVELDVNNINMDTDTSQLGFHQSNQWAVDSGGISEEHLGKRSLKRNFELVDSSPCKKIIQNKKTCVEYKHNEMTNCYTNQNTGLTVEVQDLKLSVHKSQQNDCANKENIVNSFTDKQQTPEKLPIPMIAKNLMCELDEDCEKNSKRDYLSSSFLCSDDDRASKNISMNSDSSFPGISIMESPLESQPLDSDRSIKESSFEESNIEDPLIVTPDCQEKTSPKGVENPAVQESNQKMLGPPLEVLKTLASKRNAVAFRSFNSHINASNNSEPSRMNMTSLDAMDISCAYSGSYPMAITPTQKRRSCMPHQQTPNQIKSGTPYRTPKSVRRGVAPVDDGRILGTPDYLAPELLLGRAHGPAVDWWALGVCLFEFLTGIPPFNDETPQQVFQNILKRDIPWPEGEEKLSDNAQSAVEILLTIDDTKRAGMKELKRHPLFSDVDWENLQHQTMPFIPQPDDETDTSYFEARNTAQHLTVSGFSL

[4] = target: Receptor tyrosine-protein kinase erbB-3 (Homo sapiens) (UniProt P21860); assay: Inhibition of ERBB3 (unknown origin) at 1 uM by Ambit Kinomescan binding assay relative to control
Receptor tyrosine-protein kinase erbB-3 (Homo sapiens), sequence (P21860 whole entry): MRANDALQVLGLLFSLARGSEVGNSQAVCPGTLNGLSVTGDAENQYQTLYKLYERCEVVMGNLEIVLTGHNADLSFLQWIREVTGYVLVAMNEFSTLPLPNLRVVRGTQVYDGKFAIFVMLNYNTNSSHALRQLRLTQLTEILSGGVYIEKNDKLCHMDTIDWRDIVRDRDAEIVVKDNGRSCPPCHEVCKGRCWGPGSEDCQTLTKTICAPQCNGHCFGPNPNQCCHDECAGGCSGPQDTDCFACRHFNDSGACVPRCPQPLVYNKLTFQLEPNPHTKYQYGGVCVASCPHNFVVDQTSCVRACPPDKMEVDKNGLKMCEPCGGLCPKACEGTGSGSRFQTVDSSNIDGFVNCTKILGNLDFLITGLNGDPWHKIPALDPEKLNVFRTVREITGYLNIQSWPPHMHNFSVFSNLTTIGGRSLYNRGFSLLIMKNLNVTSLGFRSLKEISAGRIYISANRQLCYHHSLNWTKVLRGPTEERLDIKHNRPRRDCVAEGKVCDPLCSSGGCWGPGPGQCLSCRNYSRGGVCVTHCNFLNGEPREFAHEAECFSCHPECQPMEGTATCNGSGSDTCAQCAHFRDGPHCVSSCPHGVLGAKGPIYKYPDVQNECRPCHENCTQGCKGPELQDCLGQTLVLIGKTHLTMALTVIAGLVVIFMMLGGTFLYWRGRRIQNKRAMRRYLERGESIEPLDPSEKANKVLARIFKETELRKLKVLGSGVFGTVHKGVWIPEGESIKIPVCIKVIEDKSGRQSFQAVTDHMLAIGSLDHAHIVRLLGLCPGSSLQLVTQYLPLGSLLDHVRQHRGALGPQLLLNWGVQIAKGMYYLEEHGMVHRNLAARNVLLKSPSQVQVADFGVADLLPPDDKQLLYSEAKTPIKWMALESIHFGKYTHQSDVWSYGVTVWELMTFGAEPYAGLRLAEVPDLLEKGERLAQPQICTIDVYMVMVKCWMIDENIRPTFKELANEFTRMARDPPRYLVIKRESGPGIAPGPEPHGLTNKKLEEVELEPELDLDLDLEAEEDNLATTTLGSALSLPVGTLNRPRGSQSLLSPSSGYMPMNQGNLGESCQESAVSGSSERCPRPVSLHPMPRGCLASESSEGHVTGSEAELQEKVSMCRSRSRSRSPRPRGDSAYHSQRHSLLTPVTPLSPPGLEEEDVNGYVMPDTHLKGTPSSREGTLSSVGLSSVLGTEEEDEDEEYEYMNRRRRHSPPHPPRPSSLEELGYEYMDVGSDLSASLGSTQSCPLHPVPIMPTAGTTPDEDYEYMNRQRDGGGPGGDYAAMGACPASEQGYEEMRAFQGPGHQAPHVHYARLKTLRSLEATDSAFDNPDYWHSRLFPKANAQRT

[5] = target: Serine/threonine-protein kinase MARK2 (Homo sapiens) (UniProt Q7KZI7); assay: Inhibition of MARK2 Lys2 labeling site harbouring DLKAENLLLDADMNIK in human A-375 cells at 0.5 uM by KiNativ Profiling analysis relative to control; format: cell-based
Serine/threonine-protein kinase MARK2 (Homo sapiens), sequence (Q7KZI7 whole entry): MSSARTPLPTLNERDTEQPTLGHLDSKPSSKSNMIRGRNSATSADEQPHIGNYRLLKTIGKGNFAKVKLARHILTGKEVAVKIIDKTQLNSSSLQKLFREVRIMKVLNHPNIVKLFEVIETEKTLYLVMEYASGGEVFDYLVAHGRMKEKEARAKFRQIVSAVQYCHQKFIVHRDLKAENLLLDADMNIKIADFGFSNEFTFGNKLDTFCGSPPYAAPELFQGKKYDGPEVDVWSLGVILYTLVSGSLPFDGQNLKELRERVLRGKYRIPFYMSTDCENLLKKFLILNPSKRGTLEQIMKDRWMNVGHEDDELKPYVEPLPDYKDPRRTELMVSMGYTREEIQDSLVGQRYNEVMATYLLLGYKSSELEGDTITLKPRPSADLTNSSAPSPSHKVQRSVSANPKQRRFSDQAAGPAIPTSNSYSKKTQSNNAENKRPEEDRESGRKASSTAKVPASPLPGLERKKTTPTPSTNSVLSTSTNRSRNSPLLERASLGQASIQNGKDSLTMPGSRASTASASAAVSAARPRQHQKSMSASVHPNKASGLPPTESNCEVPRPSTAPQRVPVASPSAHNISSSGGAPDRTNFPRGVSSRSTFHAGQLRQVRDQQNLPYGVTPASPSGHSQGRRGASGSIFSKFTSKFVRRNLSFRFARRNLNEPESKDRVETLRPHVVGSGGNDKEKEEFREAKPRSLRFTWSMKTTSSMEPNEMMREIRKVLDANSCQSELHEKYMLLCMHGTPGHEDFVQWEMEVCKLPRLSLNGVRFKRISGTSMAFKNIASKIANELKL

[6] = target: T2, Serine/threonine-protein kinase NLK (Homo sapiens) (UniProt Q9UBE8); assay: Inhibition of NLK (unknown origin) at 1 uM by Ambit Kinomescan binding assay relative to control; values are per cent of control
T2 sequence (whole entry): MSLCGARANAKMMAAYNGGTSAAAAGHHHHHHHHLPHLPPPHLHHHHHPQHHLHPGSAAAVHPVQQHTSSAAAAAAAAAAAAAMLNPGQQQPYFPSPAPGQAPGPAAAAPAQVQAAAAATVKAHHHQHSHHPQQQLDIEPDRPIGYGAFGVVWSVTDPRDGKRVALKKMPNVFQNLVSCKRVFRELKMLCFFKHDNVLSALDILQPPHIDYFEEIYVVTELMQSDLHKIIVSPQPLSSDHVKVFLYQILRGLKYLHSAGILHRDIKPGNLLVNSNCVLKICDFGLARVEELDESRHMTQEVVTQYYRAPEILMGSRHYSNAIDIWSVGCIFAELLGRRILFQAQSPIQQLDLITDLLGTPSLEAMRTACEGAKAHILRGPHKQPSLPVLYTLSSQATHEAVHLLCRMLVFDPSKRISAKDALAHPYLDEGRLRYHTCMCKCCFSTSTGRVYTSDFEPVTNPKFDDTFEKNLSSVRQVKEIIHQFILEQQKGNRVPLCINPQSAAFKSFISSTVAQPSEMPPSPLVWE

[7] = target: Dual specificity mitogen-activated protein kinase kinase 2 (Homo sapiens) (UniProt P36507); assay: Inhibition of MEK2 (unknown origin) at 1 uM by Ambit Kinomescan binding assay relative to control; values are per cent of control
Dual specificity mitogen-activated protein kinase kinase 2 (Homo sapiens), sequence (P36507 whole entry): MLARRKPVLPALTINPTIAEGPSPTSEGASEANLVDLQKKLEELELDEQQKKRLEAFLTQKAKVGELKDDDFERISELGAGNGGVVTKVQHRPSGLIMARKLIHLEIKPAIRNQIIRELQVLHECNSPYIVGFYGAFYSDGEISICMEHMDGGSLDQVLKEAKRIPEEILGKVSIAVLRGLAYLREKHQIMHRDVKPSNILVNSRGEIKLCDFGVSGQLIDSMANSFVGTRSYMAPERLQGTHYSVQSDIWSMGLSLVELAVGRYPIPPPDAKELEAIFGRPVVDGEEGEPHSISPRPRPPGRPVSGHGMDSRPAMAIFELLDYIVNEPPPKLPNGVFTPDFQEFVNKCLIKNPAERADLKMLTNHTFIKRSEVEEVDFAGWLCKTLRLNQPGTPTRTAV

[8] = target: Death-associated protein kinase 1 (Homo sapiens) (UniProt P53355); assay: Inhibition of DAPK1 (unknown origin) at 1 uM by Ambit Kinomescan binding assay relative to control; values are per cent of control
[9] = target: Serine/threonine-protein kinase Nek7 (Homo sapiens) (UniProt Q8TDX7); assay: Inhibition of NEK7 Lys2 labeling site harbouring VMHRDIKPANVFITATGVVK in human Huh-7 cell lysate at 1 uM by KiNativ Profiling analysis relative to control; format: subcellular
Serine/threonine-protein kinase Nek7 (Homo sapiens), sequence (Q8TDX7 whole entry, looked up): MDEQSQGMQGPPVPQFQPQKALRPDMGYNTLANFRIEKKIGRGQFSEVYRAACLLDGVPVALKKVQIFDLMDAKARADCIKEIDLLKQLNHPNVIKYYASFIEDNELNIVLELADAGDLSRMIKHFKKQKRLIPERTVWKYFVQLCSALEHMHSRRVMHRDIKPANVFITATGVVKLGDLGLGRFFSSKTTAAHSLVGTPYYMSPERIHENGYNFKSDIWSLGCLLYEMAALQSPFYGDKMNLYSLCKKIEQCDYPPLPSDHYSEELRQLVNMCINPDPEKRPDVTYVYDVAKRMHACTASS

[10] = target: T1, Serine/threonine-protein kinase greatwall (Homo sapiens); assay: Inhibition of MASTL Lys2 labeling site in human Huh-7 cells at 1 uM by KiNativ Profiling analysis relative to control; format: cell-based

Structure (SMILES): CCN1CCN(Cc2ccc(NC(=O)c3ccc(C)c(Oc4ccnc5[nH]ccc45)c3)cc2C(F)(F)F)CC1
- inhibition [1]: 0.7%
- inhibition [2]: 13.5%
- inhibition [3]: -2.1%

Structure (SMILES): CCN1CCN(Cc2ccc(NC(=O)c3ccc(C)c(/C=C/c4cnc5[nH]ccc5c4OC)c3)cc2C(F)(F)F)CC1
- inhibition [4]: 100%
- inhibition [5]: 9.1%
- residual activity [6]: 18%
- residual activity [7]: 74%
- residual activity [8]: 77%

Structure (SMILES): CNc1cc(Oc2cc(C(=O)Nc3cc(N4CCN(C)CC4)cc(C(F)(F)F)c3)ccc2C)ncn1
- inhibition [9]: 19.4%
- inhibition [10]: -7.3%
